Literature values as cited in PMC3103655 (Journal of natural products, 2011).
pIC50: −log10 of the molar value.

What was measured:
MOLT-4 leukemia cells = conditions: read-out: IC50, MOLT-4 leukemia cells
MCF7 breast cancer cells = conditions: read-out: IC50, MCF7 breast cancer cells
KB cells = conditions: 10 μg/mL
LoVo cells = conditions: 10 μg/mL

Substance: dolastatin 10
- IC50 values against cancer cells (cancer cells): pico- to nanomolar

Substance: hantupeptin A
- pIC50 (MOLT-4 leukemia cells): 7.49
- pIC50 (MCF7 breast cancer cells): 5.40

Substance: symplostatin 1
- IC50 values against cancer cells (cancer cells): pico- to nanomolar

Substance: trungapeptin A
- cytotoxicity, KB cells (KB cells): did not display cytotoxicity
- cytotoxicity, LoVo cells (LoVo cells): did not display cytotoxicity
